Molecules are shown by their SMILES.

In general, Ki refers to a measure of affinity in units of concentration, obtained from inhibition or displacement. Broadly, the ED50 is the midpoint of the dose-response relation. A low value points to greater potency.

In assay [1] the target is T1, Alpha-2A adrenergic receptor (Homo sapiens, UniProt P08913).
T1 sequence (P08913 whole entry): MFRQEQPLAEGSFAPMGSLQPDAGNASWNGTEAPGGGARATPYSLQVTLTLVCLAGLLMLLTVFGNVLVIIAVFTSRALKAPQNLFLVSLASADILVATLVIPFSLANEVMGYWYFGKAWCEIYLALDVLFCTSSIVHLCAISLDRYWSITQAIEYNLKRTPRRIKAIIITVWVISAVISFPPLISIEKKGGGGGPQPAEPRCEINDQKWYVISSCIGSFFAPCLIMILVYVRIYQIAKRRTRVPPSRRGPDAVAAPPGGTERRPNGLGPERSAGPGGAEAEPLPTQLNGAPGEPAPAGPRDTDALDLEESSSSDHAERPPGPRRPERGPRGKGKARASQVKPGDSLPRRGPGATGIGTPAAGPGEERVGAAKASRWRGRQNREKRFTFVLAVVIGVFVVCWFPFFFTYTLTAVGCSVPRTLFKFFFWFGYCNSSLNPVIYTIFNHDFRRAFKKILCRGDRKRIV
Description: In vitro binding affinity to the human alpha-2A adrenergic receptor.

Assay [2] addresses Adrenergic receptor alpha-2 (Rattus norvegicus) (UniProt P22086+P19328+P22909). Description: Inhibition ofmedetomidine-induced loss of righting, which evaluates the ability to block central alpha-2-adrenoceptor. Type of assay: functional.
Assay [3] concerns the target T2, Alpha-2C adrenergic receptor (Homo sapiens, UniProt P18825).
T2 sequence (P18825 whole entry): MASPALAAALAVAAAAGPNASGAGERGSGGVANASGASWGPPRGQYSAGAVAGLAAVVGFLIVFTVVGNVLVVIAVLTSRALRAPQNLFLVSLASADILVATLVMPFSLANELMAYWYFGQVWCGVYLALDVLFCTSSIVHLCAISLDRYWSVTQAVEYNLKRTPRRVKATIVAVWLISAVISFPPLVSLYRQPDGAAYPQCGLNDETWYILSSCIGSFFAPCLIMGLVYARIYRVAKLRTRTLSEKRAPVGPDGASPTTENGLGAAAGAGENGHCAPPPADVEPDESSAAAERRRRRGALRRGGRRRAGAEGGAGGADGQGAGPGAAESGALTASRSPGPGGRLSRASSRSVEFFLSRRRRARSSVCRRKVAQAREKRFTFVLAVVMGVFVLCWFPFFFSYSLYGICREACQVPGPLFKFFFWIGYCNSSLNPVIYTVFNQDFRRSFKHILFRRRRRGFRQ
Description: In vitro binding affinity to human alpha-2C adrenergic receptor.

In assay [4] the target is Sodium-dependent serotonin transporter (Homo sapiens, UniProt P31645). Description: In vitro binding affinity towards human serotonin transporter.
Sodium-dependent serotonin transporter, sequence (P31645 whole entry): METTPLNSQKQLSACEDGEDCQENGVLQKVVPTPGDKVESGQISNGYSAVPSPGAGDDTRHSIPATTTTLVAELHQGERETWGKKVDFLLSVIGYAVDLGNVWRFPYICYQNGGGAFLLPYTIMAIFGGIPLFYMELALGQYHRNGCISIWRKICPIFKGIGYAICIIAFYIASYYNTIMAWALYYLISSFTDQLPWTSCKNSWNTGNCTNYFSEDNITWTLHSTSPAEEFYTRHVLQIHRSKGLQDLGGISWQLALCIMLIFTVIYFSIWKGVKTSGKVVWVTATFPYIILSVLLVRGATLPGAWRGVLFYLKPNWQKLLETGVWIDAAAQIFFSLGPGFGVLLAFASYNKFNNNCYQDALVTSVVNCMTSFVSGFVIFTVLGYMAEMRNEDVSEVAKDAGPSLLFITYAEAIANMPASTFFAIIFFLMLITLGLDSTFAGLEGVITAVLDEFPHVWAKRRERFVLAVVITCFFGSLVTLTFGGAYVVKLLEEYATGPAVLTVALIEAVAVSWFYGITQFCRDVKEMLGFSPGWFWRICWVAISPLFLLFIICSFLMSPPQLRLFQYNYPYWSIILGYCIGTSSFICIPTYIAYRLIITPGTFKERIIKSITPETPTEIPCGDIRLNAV

Regarding `COc1cc2c(cc1OC)C1=NO[C@@H](CN3CCN(C/C=C(\C)c4ccccc4OC)CC3)[C@@H]1CO2`, the Ki was determined as 5.2 nM in assay [1], 0.9 nM in assay [3] and 51 nM in assay [4]. Further, in assay [2], the ED50 was more than 2.5 mg/kg.

On to `COc1cc2c(cc1OC)C1=NO[C@@H](CN3CCN(C/C(C)=C/c4ccccc4)CC3)[C@@H]1CO2`, for which, in assay [2], the ED50 came out at 1.3 mg/kg. The molecule also returned a Ki in assay [3] of 0.2 nM.

For the molecule `COc1cc2c(cc1OC)C1=NO[C@@H](CN3CCN(C/C=C/c4ccc(F)cc4)CC3)[C@@H]1CO2`, the values for the Ki in assay [1], in assay [3] and in assay [4] were 9 nM, 23 nM and 5.6 nM, respectively. Also, the ED50 in assay [2] turned out to be 4.7 mg/kg.

Consider `COc1cc2c(cc1OC)C1=NO[C@@H](CN3CCN(C/C=C/c4cccc(F)c4)CC3)[C@@H]1CO2`, for which the values for the Ki in assay [1], in assay [3] and in assay [4] were 5.9 nM, 0.7 nM and 2.5 nM, respectively. In assay [2], this molecule gave an ED50 of 5 mg/kg.

Regarding `COc1cc2c(cc1OC)C1=NO[C@@H](CN3CCN(C/C=C(\C)c4ccc(F)cc4)CC3)[C@@H]1CO2`, the Ki in assay [1] was found to be 2.9 nM; in assay [3] it was 0.3 nM; in assay [4], 1.3 nM. The ED50 in assay [2] was determined as 1.25 mg/kg.

Turning to `COc1cc2c(cc1OC)C1=NO[C@@H](CN3CCN(C/C=C(\C)c4ccc(O)cc4)CC3)[C@@H]1CO2`, the Ki is 1.9 nM in assay [1], 0.6 nM in assay [3] and 7.6 nM in assay [4]. Further, the ED50 in assay [2] is more than 2.5 mg/kg.

Regarding `COc1cc2c(cc1OC)C1=NO[C@@H](CN3CCN(C/C(C)=C/c4ccco4)CC3)[C@@H]1CO2`, the values for the Ki in assay [1], in assay [3] and in assay [4] were 1.7 nM, 0.5 nM and 21 nM, respectively. In assay [2], this molecule showed an ED50 of 5 mg/kg.

In the case of `COc1cc2c(cc1OC)C1=NO[C@@H](CN3CCN(C/C(C)=C/c4cccc(F)c4)CC3)[C@@H]1CO2`, the Ki in assay [1] was determined as 1.1 nM; in assay [3], 0.2 nM. In assay [2], it took a dose of 0.63 mg/kg to reach the 50% effect level (ED50).

For the molecule `COc1cc2c(cc1OC)C1=NO[C@@H](CN3CCN(C/C=C/c4ccccc4F)CC3)[C@@H]1CO2`, the Ki in assay [1] turned out to be 2.9 nM; in assay [3], 2.8 nM; in assay [4] it was 13 nM. The ED50 in assay [2] worked out at 2.5 mg/kg.

For `COc1cc2c(cc1OC)C1=NO[C@@H](CN3CCN(C/C(C)=C/c4ccsc4)CC3)[C@@H]1CO2`, the results for the Ki in assay [1], in assay [3] and in assay [4] were 1.1 nM, 0.2 nM and 1.9 nM, respectively. This molecule also gave an ED50 in assay [2] of 1.25 mg/kg.

`COc1cc2c(cc1OC)C1=NO[C@@H](CN3CCN(C/C(C)=C/c4cc(F)ccc4F)CC3)[C@@H]1CO2`: the Ki in assay [1] is 0.3 nM; in assay [3], 0.2 nM. In addition, the ED50 in assay [2] was 2.5 mg/kg.

For `COc1cc2c(cc1OC)C1=NO[C@@H](CN3CCN(C/C(C)=C/c4cccs4)CC3)[C@@H]1CO2`, the Ki is 1.7 nM in assay [1], 0.2 nM in assay [3] and 2.7 nM in assay [4]. This molecule gave an ED50 in assay [2] of 0.63 mg/kg.

Turning to `COc1cc2c(cc1OC)C1=NO[C@@H](CN3CCN(C/C=C(\C)c4ccsc4)CC3)[C@@H]1CO2`, the inhibition constant (Ki) in assay [1] stood at 1.4 nM; in assay [3], 0.3 nM; in assay [4], 4.8 nM. The ED50 in assay [2] is 1.25 mg/kg.

In the case of `COc1cc2c(cc1OC)C1=NO[C@@H](CN3CCN(C/C=C/c4ccc(Cl)cc4)CC3)[C@@H]1CO2`, the Ki in assay [1] worked out at 69 nM; in assay [3], 10 nM; in assay [4], 1.3 nM. This molecule also registered an ED50 in assay [2] of 10 mg/kg.

In turn, `COc1cc2c(cc1OC)C1=NO[C@@H](CN3CCN(C/C=C/c4ccccc4)CC3)[C@@H]1CO2` had a Ki in assay [4] of 8.3 nM. This lies in the single-digit nanomolar range.

As to `COc1ccccc1/C=C(\C)CN1CCN(C[C@@H]2ON=C3c4cc(OC)c(OC)cc4OC[C@H]32)CC1`, the Ki in assay [1] came to 1 nM; in assay [3], 0.4 nM. Moreover, the 50% effect level in assay [2] (ED50) was put at a dose of 2 mg/kg.

On to `COc1cc2c(cc1OC)C1=NO[C@@H](CN3CCN(C/C(C)=C/c4cccnc4)CC3)[C@@H]1CO2`, for which the results for the Ki in assay [1], in assay [3] and in assay [4] were 22 nM, 2.1 nM and 63 nM, respectively. The same molecule displayed an ED50 in assay [2] of 3.1 mg/kg.

Consider `COc1cc2c(cc1OC)C1=NO[C@@H](CN3CCN(C/C(C)=C/c4cccc(F)c4F)CC3)[C@@H]1CO2`, for which the Ki was 3 nM in assay [1] and 0.7 nM in assay [3]. In assay [2], this molecule returned an ED50 of 10 mg/kg.

Turning to `COc1cc2c(cc1OC)C1=NO[C@@H](CN3CCN(C/C=C(\C)c4ccco4)CC3)[C@@H]1CO2`, the Ki in assay [1] came to 0.5 nM; in assay [3], 0.4 nM; in assay [4], 22 nM. In assay [2], this molecule showed an ED50 of 0.16 mg/kg.

In assay [2], `COc1cc2c(cc1OC)C1=NO[C@@H](CN3CCN(C/C=C\c4ccccc4)CC3)[C@@H]1CO2` yielded an ED50 of more than 10 mg/kg. This molecule yielded a Ki in assay [4] of 35 nM.

On to `COc1cc2c(cc1OC)C1=NO[C@@H](CN3CCN(C/C=C(\C)c4ccccc4)CC3)[C@@H]1CO2`, for which it took a dose of 0.3 mg/kg to reach the 50% effect level in assay [2] (ED50). Besides, in assay [4], affinity was put at a Ki of 4.5 nM.

On to `COc1cc2c(cc1OC)C1=NO[C@@H](CN3CCN(C/C=C(\C)c4cccs4)CC3)[C@@H]1CO2`, for which the inhibition constant Ki in assay [1] was 0.3 nM; in assay [3], 0.2 nM; in assay [4], 74 nM. In addition, the ED50 in assay [2] was 0.63 mg/kg.

Consider `COc1cc2c(cc1OC)C1=NO[C@@H](CN3CCN(C/C(C)=C/c4ccc(F)cc4)CC3)[C@@H]1CO2`, for which the figures for the Ki in assay [1] and in assay [3] were 3.4 nM and 0.7 nM, respectively. This molecule also yielded an ED50 in assay [2] of 10 mg/kg.

With `COc1cc2c(cc1OC)C1=NO[C@@H](CN3CCN(C/C=C(\C)c4ccc(F)cc4F)CC3)[C@@H]1CO2`, the values for the Ki in assay [1], in assay [3] and in assay [4] were 9.3 nM, 0.8 nM and 5.4 nM, respectively. This molecule had an ED50 in assay [2] of more than 2.5 mg/kg.

The values above are taken from ChEMBL document CHEMBL1146766, “Synthesis of 3a,4-dihydro-3H-[1]benzopyrano[4,3-c]isoxazoles, displaying combined 5-HT uptake inhibiting and alpha2-adrenoceptor antagonistic activities. Part 2: Further exploration on the cinnamyl moiety” (Bioorg Med Chem Lett, 2004).
